We go through 15 compounds from patent publication US9580390B2, “Indazole compounds as kinase inhibitors and method of treating cancer with same” (University Health Network, priority 2011, dated 2017).

For one assay, the target named is T1, human TTK (Homo sapiens, UniProt P33981).
T1 construct: amino terminal GST fusion of full length human TTK; purchased Invitrogen
T1 sequence (P33981 1-857): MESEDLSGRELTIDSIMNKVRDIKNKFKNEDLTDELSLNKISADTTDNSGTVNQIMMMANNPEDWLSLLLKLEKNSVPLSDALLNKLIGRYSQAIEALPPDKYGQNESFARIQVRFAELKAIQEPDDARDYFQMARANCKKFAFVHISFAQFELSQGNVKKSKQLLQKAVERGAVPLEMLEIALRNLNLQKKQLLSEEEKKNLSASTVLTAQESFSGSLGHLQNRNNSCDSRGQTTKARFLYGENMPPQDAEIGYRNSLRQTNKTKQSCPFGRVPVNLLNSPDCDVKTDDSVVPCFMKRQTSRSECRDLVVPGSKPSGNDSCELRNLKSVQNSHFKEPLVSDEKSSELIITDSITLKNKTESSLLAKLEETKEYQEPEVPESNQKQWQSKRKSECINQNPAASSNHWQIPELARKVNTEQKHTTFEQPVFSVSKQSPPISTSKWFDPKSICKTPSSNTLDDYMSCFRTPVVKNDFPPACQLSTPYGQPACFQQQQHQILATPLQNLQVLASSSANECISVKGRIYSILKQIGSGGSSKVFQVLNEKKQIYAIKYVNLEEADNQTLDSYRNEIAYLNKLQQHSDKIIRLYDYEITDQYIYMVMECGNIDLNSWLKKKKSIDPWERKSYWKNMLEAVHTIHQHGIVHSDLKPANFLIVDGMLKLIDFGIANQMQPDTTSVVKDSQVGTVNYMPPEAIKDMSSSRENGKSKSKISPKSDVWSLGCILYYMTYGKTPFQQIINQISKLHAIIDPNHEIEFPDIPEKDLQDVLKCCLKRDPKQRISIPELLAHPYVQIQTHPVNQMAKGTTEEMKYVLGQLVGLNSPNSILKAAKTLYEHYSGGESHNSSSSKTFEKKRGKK
As to the kind of experiment: TTK inhibition assay (indirect ELISA). The assay is classed as biochemical.

Another assay deals with TICs (Ovarian 2393A). As to the kind of experiment: Ovarian tumor-initiating cell growth inhibition (Alamar Blue). The assay is classed as cell-based. The conditions noted are these: 144 h, 6 days, read-out: Tumor Initiating Cell GI50 Range Ovarain 2393A.
The test system of the next assay is Breast cancer cells. As to the kind of experiment: Cancer cell line growth inhibition (SRB assay). The assay is classed as cell-based. To be noted: Homo sapiens; MDA-MB-468; read-out: Cancer Cell Line GI50 Range MDA-MB-468.
For assay [1], the system named is colon cancer cells (HCT116). As to the kind of experiment: Cancer cell line growth inhibition (SRB assay). The assay is classed as cell-based. To be noted: Homo sapiens, HCT-116, read-out: Cancer Cell Line GI50 Range HCT116.
In the next assay the test system is TICs (Colon 12). As to the kind of experiment: Colon tumor-initiating cell growth inhibition (Alamar Blue). The assay is classed as cell-based. To be noted: 216 h, 9 days, read-out: Tumor Initiating Cell GI50 Range Colon 12.
The test system of assay [2] is ovarian cancer cells (PA-1). As to the kind of experiment: Cancer cell line growth inhibition (SRB assay). The assay is classed as cell-based. The conditions noted are these: read-out: Cancer Cell Line GI50 Range PA-1.
Where [3] appears, read: HCT116 colon cancer cells, SRB assay.
The mark [4] stands for this setting: PA-1 ovarian cancer cells, SRB assay.

Like-named read-outs stand apart in the source and are kept apart here.

Excerpt for TICs (Colon 12): Materials and Methods: Non-tissue or tissue cultured treated T-75 flask and 96-well plates were purchased from VWR. Vitamin B-27 supplement, MEM NEAA (minimum essential medium non essential amino acids), sodium pyruvate, L-glutamine, N2 supplement, penicillin-streptomycin and fungizone/amphotericin B were obtained from Invitrogen. Lipid mixture, heparin and EGF were purchased from Sigma; bFGF from BD Biosciences. Tumor Initiating Cells (TICs) from colon were routinely maintained using non-tissue cultured treated T-75 flasks in DMEM:F12 medium containing 0.2×B-27 supplement, 4 ug/ml heparin, 1×MEM NEAA, 1× sodium pyruvate, 1 mM glutamine, 10 pg/ul bFGF, 20 pg/ul EGF, 1×N2 supplement, lipid mixture, penicillin-streptomycin and fungizone/amphotericin B. Ovarian TICs were routinely maintained using tissue cultured treated T-75 flasks in DMEM:F12 medium containing 1×B-27 supplement, 4 ug/ml heparin, 20 pg/ul bFGF, 20 pg/ul EGF and penicillin-streptomycin.
Assay Protocol: Compounds described herein were dissolved in DMSO and further diluted in cell culture medium for GI50 determination. Colon TICs were trypsinized and seeded into non-tissue cultured treated 96-well plates with 4,000 cells/well. After 24 h, compound was added into the cell culture at different concentrations, and the final concentration of DMSO was adjusted to 0.1%. Cells were then cultured at 37° C. for 9 days. Ovarian TICs were trypsinized and seeded into tissue cultured treated 96-well plates with 1,000 cells/well. After 24 h, compound was added into the cell culture at different concentrations, and the final concentration of DMSO was adjusted to 0.1%. Cells were then cultured at 37° C. for 6 days. Cell viability was assessed by Alamar Blue assay: 10 ul of Alamar Blue was added into each well. After 4 hours incubation at 37° C., fluorescence was recorded at excitation 544 and emission 590. GI50 (Growth inhibition) was calculated using GraphPad Prism 4.0 software.

Turning to `CN1CCC(Oc2ccc(-c3n[nH]c4ccc(C(=O)NC(c5ccccn5)C5CC5)cc34)cc2S(C)(=O)=O)CC1` (stereo not shown) [Example A245, N-(cyclopropyl(pyridin-2-yl)methyl)-3-(4-((1-methylpiperidin-4-yl)oxy)-3-(methylsulfonyl)phenyl)-1H-indazole-5-carboxamide], the IC50 on human TTK (read-out: TTK IC50 Range) was below 100 nM. Besides, the GI50 is above 500 nM in the assay with TICs (Ovarian 2393A) (Ovarian 2393A TICs); above 500 nM in the assay on Breast cancer cells; 100 to 500 nM in assay [1]; above 500 nM in the assay with TICs (Colon 12) (Colon 12 TICs); 100 to 500 nM in assay [2] (Homo sapiens, PA-1).
Regarding `CC(C)C[C@@H](NC(=O)c1ccc2[nH]nc(-c3ccc(N4C5CCC4CC(O)C5)cc3)c2c1)c1ccccn1` (stereo partly drawn) [Example A305, 3-(4-((1R,3R,5S)-3-hydroxy-8-azabicyclo[3.2.1]octan-8-yl)phenyl)-N-((R)-3-methyl-1-(pyridin-2-yl)butyl)-1H-indazole-5-carboxamide], at human TTK, the IC50 is below 100 nM. The GI50 in the assay on TICs (Ovarian 2393A) (Ovarian 2393A TICs) is below 100 nM; in assay [1], below 100 nM; in the assay with TICs (Colon 12) (Colon 12 TICs) it was below 100 nM; in assay [2] (Homo sapiens, PA-1) it was below 100 nM.
Take `C[C@@H](O)CN1CCC(Oc2ccc(-c3n[nH]c4ccc(C(=O)N[C@H](c5ccccn5)C5CC5)cc34)cc2)CC1` [Example A221, N-((S)-cyclopropyl(pyridin-2-yl)methyl)-3-(4-((1-((R)-2-hydroxypropyl)piperidin-4-yl)oxy)phenyl)-1H-indazole-5-carboxamide]: on human TTK (read-out: TTK IC50 Range), the IC50 was below 100 nM. Further, the GI50 in the assay on TICs (Ovarian 2393A) (Ovarian 2393A TICs) is 100 to 500 nM; in assay [1] it was below 100 nM; in the assay with TICs (Colon 12) (Colon 12 TICs), 100 to 500 nM; in assay [2] (Homo sapiens, PA-1), below 100 nM.
Turning to `O=C(N[C@H](c1ccccn1)C1CC1)c1ccc2[nH]nc(-c3ccc(N4C5CCC4CC(O)C5)cc3)c2c1` (stereo partly drawn) [Example A361, N-((S)-cyclopropyl(pyridin-2-yl)methyl)-3-(4-((1R,3S,5S)-3-hydroxy-8-azabicyclo[3.2.1]octan-8-yl)phenyl)-1H-indazole-5-carboxamide], the IC50 on human TTK is below 100 nM. For the same compound, the GI50 in the assay with TICs (Ovarian 2393A) (Ovarian 2393A TICs) was below 100 nM; in assay [1] it was below 100 nM; with TICs (Colon 12) (Colon 12 TICs), below 100 nM; in assay [2] (Homo sapiens, PA-1), below 100 nM.
Regarding `C[C@@H](O)C(=O)N1CCC(Oc2ccc(-c3n[nH]c4ccc(C(=O)N[C@H](c5ccccc5)C5CC5)cc34)cc2)CC1` [Example A379, N-((S)-cyclopropyl(phenyl)methyl)-3-(4-((1-((R)-2-hydroxypropanoyl)piperidin-4-yl)oxy)phenyl)-1H-indazole-5-carboxamide], the IC50 on human TTK (read-out: TTK IC50 Range) was below 100 nM. Besides, the GI50 is 100 to 500 nM with TICs (Ovarian 2393A) (Ovarian 2393A TICs); 100 to 500 nM in assay [1]; below 100 nM in the assay on TICs (Colon 12) (Colon 12 TICs); 100 to 500 nM in assay [2] (Homo sapiens, PA-1).
In the case of `O=CN1CCC(Oc2ccc(-c3n[nH]c4ccc(C(=O)NCC5(N6CCOCC6)CCCCC5)cc34)cc2)CC1` [Example A504, 3-(4-((1-formylpiperidin-4-yl)oxy)phenyl)-N-((1-morpholinocyclohexyl)methyl)-1H-indazole-5-carboxamide], the IC50 on human TTK (read-out: TTK IC50 Range) is below 100 nM. The GI50 in the assay with TICs (Ovarian 2393A) (ovarian TICs, Alamar Blue) is 100 to 500 nM; in assay [1] (setting [3]), below 100 nM; in the assay with TICs (Colon 12) (colon TICs, Alamar Blue) it was 100 to 500 nM; in assay [2] (setting [4]), 100 to 500 nM.
With `O=C(NC(c1ccccn1)C1CCCC1)c1ccc2[nH]nc(-c3ccc(N4CCN(C5COC5)CC4)cc3)c2c1` (stereo not shown) [Example A402, N-(cyclopentyl(pyridin-2-yl)methyl)-3-(4-(4-(oxetan-3-yl)piperazin-1-yl)phenyl)-1H-indazole-5-carboxamide], the IC50 at human TTK (read-out: TTK IC50 Range) is below 100 nM. Also, the GI50 is below 100 nM in the assay on TICs (Ovarian 2393A) (Ovarian 2393A TICs); below 100 nM in assay [1]; below 100 nM in the assay with TICs (Colon 12) (Colon 12 TICs); below 100 nM in assay [2] (Homo sapiens, PA-1).
As for `CC(C)C[C@H](NC(=O)c1ccc2[nH]nc(-c3ccc(N4C5CCC4CC(O)C5)cc3)c2c1)c1ccccn1` (stereo partly drawn) [Example A301, 3-(4-((1R,3S,5S)-3-hydroxy-8-azabicyclo[3.2.1]octan-8-yl)phenyl)-N-((S)-3-methyl-1-(pyridin-2-yl)butyl)-1H-indazole-5-carboxamide], the IC50 against human TTK is below 100 nM. The GI50 was below 100 nM in the assay on TICs (Ovarian 2393A) (Ovarian 2393A TICs); below 100 nM in assay [1]; below 100 nM in the assay on TICs (Colon 12) (Colon 12 TICs); below 100 nM in assay [2] (Homo sapiens, PA-1).
Regarding `O=C(N[C@@H](c1ccccn1)C1CC1)c1ccc2[nH]nc(-c3ccc(N4[C@@H]5CC[C@H]4COC5)cc3)c2c1` [Example A422, 3-(4-((1R,5S)-3-oxa-8-azabicyclo[3.2.1]octan-8-yl)phenyl)-N-((R)-cyclopropyl(pyridin-2-yl)methyl)-1H-indazole-5-carboxamide], at human TTK (read-out: TTK IC50 Range), the IC50 is below 100 nM. The GI50 was 100 to 500 nM in the assay with TICs (Ovarian 2393A) (Ovarian 2393A TICs); below 100 nM in assay [1]; below 100 nM in the assay on TICs (Colon 12) (Colon 12 TICs); below 100 nM in assay [2] (Homo sapiens, PA-1).
In the case of `O=CN1C2CCC1CC(Oc1ccc(-c3n[nH]c4ccc(C(=O)N[C@H](c5ccccc5)C5CC5)cc34)cc1)C2` (stereo partly drawn) [Example A328, N-((S)-cyclopropyl(phenyl)methyl)-3-(4-(((1R,3R,5S)-8-formyl-8-azabicyclo[3.2.1]octan-3-yl)oxy)phenyl)-1H-indazole-5-carboxamide], the IC50 on human TTK (read-out: TTK IC50 Range) is below 100 nM. Further, the GI50 is 100 to 500 nM in the assay on TICs (Ovarian 2393A) (Ovarian 2393A TICs); below 100 nM in assay [1]; below 100 nM with TICs (Colon 12) (Colon 12 TICs); below 100 nM in assay [2] (Homo sapiens, PA-1).
Compound `O=C(N[C@H](c1ccccn1)C1CCCC1)c1ccc2[nH]nc(-c3ccc(N4[C@@H]5CCC[C@H]4COC5)cc3)c2c1` [Example A418, 3-(4-((1R,5S)-3-oxa-9-azabicyclo[3.3.1]nonan-9-yl)phenyl)-N-((S)-cyclopentyl(pyridin-2-yl)methyl)-1H-indazole-5-carboxamide] had an IC50 against human TTK below 100 nM. Further, the concentration for 50% growth inhibition (GI50) with TICs (Ovarian 2393A) (Ovarian 2393A TICs) is below 100 nM; in assay [1], below 100 nM; with TICs (Colon 12) (Colon 12 TICs), below 100 nM; in assay [2] (Homo sapiens, PA-1) it was below 100 nM.
For the compound `CC(C)[C@H](NC(=O)c1ccc2[nH]nc(-c3ccc(OC4CCN(C5COC5)CC4)cc3)c2c1)c1ccccc1Cl` [Example A332, (S)-N-(1-(2-chlorophenyl)-2-methylpropyl)-3-(4-((1-(oxetan-3-yl)piperidin-4-yl)oxy)phenyl)-1H-indazole-5-carboxamide], the IC50 on human TTK (read-out: TTK IC50 Range) is below 100 nM. Moreover, the 50% growth inhibitory concentration (GI50) is below 100 nM with TICs (Ovarian 2393A) (Ovarian 2393A TICs); below 100 nM in assay [1]; below 100 nM with TICs (Colon 12) (Colon 12 TICs); below 100 nM in assay [2] (Homo sapiens, PA-1).
For `O=C(N[C@H](c1ccccc1Cl)C1CC1)c1ccc2[nH]nc(-c3ccc(OC4CC5CCC(C4)N5C4COC4)cc3)c2c1` (stereo partly drawn) [Example A349, N-((S)-(2-chlorophenyl)(cyclopropyl)methyl)-3-(4-(((1R,3R,5S)-8-(oxetan-3-yl)-8-azabicyclo[3.2.1]octan-3-yl)oxy)phenyl)-1H-indazole-5-carboxamide], the IC50 on human TTK (read-out: TTK IC50 Range) was below 100 nM. Further, the GI50 is below 100 nM with TICs (Ovarian 2393A) (Ovarian 2393A TICs); below 100 nM in assay [1]; below 100 nM in the assay on TICs (Colon 12) (Colon 12 TICs); below 100 nM in assay [2] (Homo sapiens, PA-1).
On to `CN1CC[C@@H](Oc2ccc(-c3n[nH]c4ccc(C(=O)NCC5(N6CCOCC6)CCCCC5)cc34)cc2)[C@@H](F)C1` [Example A455, 3-(4-(((3S,4R)-3-fluoro-1-methylpiperidin-4-yl)oxy)phenyl)-N-((1-morpholinocyclohexyl)methyl)-1H-indazole-5-carboxamide], for which, on human TTK (read-out: TTK IC50 Range), the IC50 is below 100 nM. Besides, the GI50 is 100 to 500 nM in the assay on TICs (Ovarian 2393A) (ovarian TICs, Alamar Blue); below 100 nM in assay [1] (setting [3]); 100 to 500 nM in the assay with TICs (Colon 12) (colon TICs, Alamar Blue); below 100 nM in assay [2] (setting [4]).
Take `CC(C)[C@H](NC(=O)c1ccc2[nH]nc(-c3ccc(N4CCCN(C5COC5)CC4)cc3)c2c1)c1ccccc1Cl` [Example A369, (S)-N-(1-(2-chlorophenyl)-2-methylpropyl)-3-(4-(4-(oxelan-3-yl)-1,4-diazepan-l-yl)phenyl)-1H-indazole-5-carboxamide]: the IC50 at human TTK (read-out: TTK IC50 Range) is below 100 nM. Also, the GI50 is below 100 nM with TICs (Ovarian 2393A) (Ovarian 2393A TICs); below 100 nM in assay [1]; below 100 nM with TICs (Colon 12) (Colon 12 TICs); below 100 nM in assay [2] (Homo sapiens, PA-1).
